Bounds are passed on as bounds.

Data set [1] deals with EGFR autophosphorylation (Y1068).
Protocol: HCC827 and PC9 cell cultures are set up from log-phase passage flasks. Cells are seeded into 6-well plates at a density of 1 million cells per well and left for 48 hours under normoxic or hypoxic (1% O2) conditions. Following 3 hours of drug exposure, cells are washed in ice-cold PBS and lysed on ice for 30 minutes with radioimmunoprecipitation assay (RIPA) buffer containing sodium orthovanadate and sodium fluoride at final concentrations of 1 mM each. Cell debris is pelleted out by centrifugation (13,000 rpm for 2 minutes). Protein concentrations in each sample are determined by a bicinchoninic acid (BCA) assay. Equivalent amounts of protein (10 pig) are denatured (98° C. for 5 minutes) and loaded onto 4-20% Tris-Glycine protein gels for protein separation. Following transfer to a nitrocellulose membrane, each membrane was blocked with 5% bovine serum albumin (in Tris-buffered saline) for 1 hour. […] Excess primary antibody in each membrane was washed off with Tris-buffered saline. Secondary antibody (goat anti-rabbit) was added to each membrane at a dilution of 1:5000 for 2 hours. For protein detection, the membrane was washed in Tris-buffered saline to remove excess secondary antibody and chemiluminescent substrate added (Pierce Supersignal West Pico Chemiluminescent Substrate) for 5 minutes. The membrane was viewed using a Fujifilm LAS 4000 imager.
The subject of data set [2] is WT EGFR driven H125 xenografts. The settings on record: mouse, in vivo.
Data set [3] deals with FaDu cells. The data set is described as follows: FaDu anti-proliferative assay, five day continuous aerobic exposure. Type of data set: cell-based, human.
Protocol: (§1) FaDu cells were grown in αMEM culture medium supplemented with 5% FBS, without routine use of antibiotics (P/S). Cultures were re-established from authenticated frozen stocks in liquid nitrogen at either >24 passages or >90 days in culture (whichever came first). The frozen cell stocks were confirmed to be free of mycoplasma using a PCR-ELIZA kit (Roche Diagnostics GmbH, Mannheim, Germany).
Cells were then treated with ten serial dilutions (3-fold) of each test compound. Cells were left to grow in a humidified incubator (5% CO2, 37° C.) for 5 days. Cells were then fixed with 40% trichloroacetic acid for 1 h at 4° C. Cells were then stained for Sulforhodamine B (SRB) expression. Cell density was determined by using the Biotek ELx808 Absorbance Microplate Reader.
A short description of data set [4]: in vivo. The note with it: NIH-III nude, mouse, blood, po, 10 mg/kg.
For a further data set, the system named is PC9 xenografts. Type of data set: in vivo. The settings on record: erlotinib 10 mg/kg daily oral, period of dosing 21 days.
The next data set deals with PC9 tumor. The data set is described as follows: PC9 xenograft growth delay. It is filed as in vivo, mice.
In a further data set the test system is HCC827 tumor. The data set is described as follows: HCC827 xenograft growth delay. It is filed as in vivo, mice. The note with it: Erlotinib 10 mg/kg Qdx21 p.o.
Data set [5] relates to WT EGFR expressing A431 xenograft. Briefly: A431 xenograft antitumor activity. Type of data set: in vivo, mice. The note with it: daily oral.
For data set [6], the system named is FaDu cells. The data set is described as follows: FaDu anti-proliferative assay, oxic vs anoxic 24 h exposure. It is filed as cell-based, human.
Protocol: as §1
Monolayers of FaDu cells were harvested by trypsinisation and counted using a hemocytometer. For the oxic assays, cells were seeded (1500 cells/well) in 96 well plates and allowed to settle for 2 hours in a humidified incubator (37 C/5% CO2). Cells were then treated with ten serial dilutions (3-fold) of each test compound for 24 hours. For the anoxic plates, all supplies were pre-equilibrated for at least 72 hours in a H2/palladium-catalyst anaerobic chamber (Bactron, Shellab) to remove any residual oxygen. On the experiment day, cells were centrifuged (1000 rpm, 5 min) to pellet cells. The media was aspirated. The pellet was then taken into the anaerobic chamber and diluted in anoxia-equilibrated media (αMEM culture media, 5% FCS, 0.2 mmol/L 2′-deoxycytidine, 10 mmol/L glucose) to achieve the appropriate cell density. Cells were seeded in identical conditions to the oxic plates. Once seeded, cells were left to settle in a humidified incubator (37 C) within the anaerobic chamber for 2 hours. Anoxic plates were similarly treated with ten serial dilutions (3-fold) of each test compound. Anoxic plates were removed from the anaerobic chamber four hours after drug addition, and placed into a humidified incubator (37 C/5% CO2) for a further 20 hours. After a total of 24 hours of drug exposure, both the oxic and anoxic plates were washed three times in fresh media (αMEM+5% FCS+P/S). Cells were left to grow for a total of 5 days. After which, cells were fixed with 40% trichloroacetic acid for 1 hour at 4° C. Plates were then stained for Sulforhodamine B (SRB) expression. Cell density was determined by using the Biotek ELx808 Absorbance Microplate Reader. […]
Another data set has as its system EGFR signalling. The data set is described as follows: Hypoxia preconditioning and TH-4000E sensitivity in FaDu cells. Type of data set: cell-based, human. The note with it: 48 h at 0.1% O2 or 21% O2. As for the experimental part: FaDu cells were seeded (500 k per well) in 6 well plates under both 0.1% O2 and 21% O2 for 48 hours. After 48 h of hypoxia preconditioning, cells were incubated with various concentrations of TH-4000E for 1 h.
After the designated period of anoxic exposure, cells were washed once in ice-cold PBS. […] After clarification, a BCA assay was performed to determine the protein concentration of the samples. Absorbance readings were performed at 550 nm.
Cellular lysates were resolved by gel electrophoresis and immunoblotted for various members of the EGFR signaling axis. Each loading volume included 10 μg of protein and 25% LDS sample buffer (Life Technologies #NP0007). Samples were loaded onto NuPAGE 4-12% Bis-Tris 15 well gels (Life Technologies #NP0336) and run in MES running buffer (Life Technologies #NP0002) for approximately 2 h's at 120V or until the samples had run off the gel (whichever came first). Samples were then transferred (Transfer buffer: 25 mM Tris, 192 mM glycine, 20% methanol) for 80 mins at 100V onto nitrocellulose membranes. Blots were blocked in 5% BSA or 5% phosphoblocker (CellBiolabs #AKR-104) in TBS-T for at least 1 h. Briefly, blots were incubated with primary antibodies overnight at 4° C. After three 5 min washes in TBS-T, blots were then incubated with the appropriate HRP-conjugated secondary antibody for at least 2 hours at room temperature. […]

A short description of data set [7]: in vivo. The note with it: NIH-III, mouse, plasma, ip, 15 mg/kg; for Cmax: 15 mg/kg TH-4000 ip, ± SE.
Protocol: (§2) Mice were inoculated with PC-9 cells (˜8×10^6 cells per mouse, 42 mice in total). […] The whole tumors were snap frozen (with liquid nitrogen) and bio-pulverised. The tumors were measured every day until collection to correlate the growth kinetics of the tumor to target shutdown.
(§3) For LC-MS/MS, 4 volumes of ice cold acetonitrile (containing 0.5 μM of D6-TH-4000 & TH-4000E) were added to the tumor samples. Samples were spun at 13,000 rpm for 5 min. and 40 μL of the supernatant was taken. To the supernant, 80 μL of 0.01% FA-Water was added and the sample was mixed. 10 μL of this sample was injected for analysis. […] The mass spectrometer was operated in electrospray positive ionization mode using multiple reaction monitoring (MRM). Agilent MassHunter software (v.4.04.00) was used for data acquisition and chromatographic peak integration.
For a further data set, the system named is pAkt. Briefly: FaDu target modulation Western blot, pAkt. The note with it: 1 h drug, EGF 50 ng/mL 15 min.
Data set [8] has as its system EGFR pathway signal transduction. The data set is described as follows: FaDu target modulation, EGFR pathway relative dose potency.
For data set [9] the following is noted: 15 mg/kg TH-4000, tumor.
Protocol: as §2, §3
The target of a further data set is pEGFR (Y1068) (Homo sapiens, UniProt P00533). The data set is described as follows: FaDu target modulation Western blot, pEGFR. On the technique in general: Immunoblotting shows a protein as a band on a membrane.
The test system of the next data set is pERK. The data set is described as follows: FaDu target modulation Western blot, pERK. The note with it: 1 h drug, EGF 50 ng/mL 15 min.

Protocol for HCC827 tumor: (§4) HCC827 and PC9 human non-small cell lung cancer (NSCLC) cells were prepared in medium. […] HCC827 tumors were recruited at ˜200 mm^3 and PC9 tumors were recruited at ˜400 mm^3. When the tumors reached the desired volumes, the mice were randomly assigned to groups A-E and treated as detailed in Table 1 below:
(§5) Body weight was recorded every 3 days or prior to dosing and the length and width of subcutaneous tumors were measured with electronic calipers every 3 days and volume calculated according to the formula for a prolate ellipsoid (π/6×length×width×width). All other clinical signs were recorded.
Protocol for PC9 tumor: as §4, §5
Protocol for PC9 xenografts: Tumors were grown to ˜400 mm^3. When tumors were 400 mm^3 mice were randomly assigned to groups A-J and treated as detailed below:
The length and width of subcutaneous tumors were measured with electronic calipers every 3 days and volume calculated according to the formula for a prolate ellipsoid (π/6×length×width×width). Body weight was recorded every 3 days or prior to dosing. All other clinical signs were recorded.

Regarding `C=CC(=O)Nc1cc(Nc2nccc(-c3cn(C)c4ccccc34)n2)c(OC)cc1N(C)CCN(C)C` [AZD9291], the “effect of hypoxia on inhibition of EGFR phosphorylation” value in data set [1] is listed as “resistance to AZD9291”.

Consider `CN(C)C/C=C/C(=O)Nc1cc2c(Nc3ccc(F)c(Cl)c3)ncnc2cc1O[C@H]1CCOC1` [Afatinib], for which, in data set [2], the “Day of average weight loss nadir” value is “[day 9]”.

In the case of `C#Cc1cccc(Nc2ncnc3cc(OCCOC)c(OCCOC)cc23)c1` [Erlotinib], in the data set with FaDu cells [3], the “IC50 difference, erlotinib superior to cetuximab” value is 2 fold. The compound further came in with an AUC(0-inf) in the data set “in vivo [4]” of 20 µg·h/mL. Besides, the tumor response result in the data set on PC9 xenografts is reported as “stable disease”. Moreover, the “Median Survival gain” value with PC9 tumor (10 mg/kg Erlotinib, reference Control) is recorded as 9 days. For the same compound, the “Median time to RTV4” value was 39 days with PC9 tumor (Erlotinib 10 mg/kg Qdx21 p.o.) and 114 days with HCC827 tumor. In addition, the tumor outcome in data set [5] is reported as “unable to prevent tumor progression”. The “effect of anoxia on sensitivity” value with FaDu cells [6] was “unaffected by anoxia”. In the data set on FaDu cells [6] (after anoxic exposure), the “IC50 lower than cetuximab” value was found to be 13 fold.

With `CN(C)C/C=C/C(=O)Nc1cc2c(Nc3ccc(Cl)c(Br)c3)ncnc2cn1` [TH-4000E], in the data set with FaDu cells [3], the “dose potency relative to cetuximab” value was determined as 150 fold and the “lower IC50 value than erlotinib” value is recorded as 80 fold. Also, the “sensitivity, oxia- vs hypoxia-preconditioned cells” value with EGFR signalling is reported as “comparable”. Further, in “in vivo [7]”, the AUC(0-inf) turned out to be 0.106 µg·h/mL and the half-life was 1.28 h. Besides, the Cmax in the data set “in vivo [7]” (Cmax obs) is 0.047 ± 0.0036 µg/mL. The compound also came in with a Cmax in “in vivo [7]” (Cmax pred) of 0.05 µg/mL. Besides, the “concentration largely silencing pAkt expression” value with pAkt is given as “above 0.12 μM”. Also, in data set [8], the “dose potency relative to TH-4000” value is listed as “approximately 28 fold” and the “dose potency relative to cetuximab” value is given as “at least 250 fold”. For the same compound, the “T½β of released TKI in PC9 tumors” value in data set [9] came out at 84 h. In addition, the “dose-potency relative to erlotinib (IC50)” value in the data set with FaDu cells [6] was found to be 1400 fold. The “concentration completely silencing pEGFR (Y1068) expression” value at pEGFR (Y1068) (1 h drug, EGF 50 ng/mL 15 min) is given as no less than 0.12 μM. Moreover, at pEGFR (Y1068) (lowest concentration of 3-fold dilutions), the “pEGFR expression completely silenced up to” value is listed as 0.041 μM. In addition, the “concentration completely silencing pERK expression” value in the data set on pERK was no less than 0.12 μM.

As a reminder, the AUC(0-inf) is the area under the concentration-time curve extrapolated to infinity. A low value points to less exposure. The half-life is how long it takes for the measured level to halve. A lower half-life goes with fast loss. As a reminder, the Cmax is the maximum level reached in the sampled fluid or tissue.

(Values after patent US10507210B2, “Kinase inhibitor prodrug for the treatment of cancer” (Auckland UniServices Limited, priority 2014, dated 2019).)
